Experimental data taken from PubChem BioAssay (NCI).
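Dose response: 5 concentrations. Exposure: 48 h. Format: 96-well plates. Endpoint: linear interpolation; highest concentration if not reached. Here, GI50 denotes the concentration required for 50% inhibition of growth. TGI marks complete inhibition of growth.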

What was measured:
Assay in all cases: inhibition of tumour cell growth, NCI panel, 48 h
OVCAR-5 ovarian = tested on: OVCAR-5 ovarian
SK-MEL-28 melanoma = tested on: SK-MEL-28 melanoma
HCC-2998 colon = tested on: HCC-2998 colon
MDA-MB-435 = tested on: MDA-MB-435
NCI-H460 lung = tested on: NCI-H460 lung
SF-539 CNS = tested on: SF-539 CNS
SW-620 colon = tested on: SW-620 colon
EKVX NSCLC = tested on: EKVX NSCLC
TK-10 renal = tested on: TK-10 renal
NCI-H226 lung = tested on: NCI-H226 lung

SMILES	GI50 (OVCAR-5 ovarian) [µM]	TGI (OVCAR-5 ovarian) [µM]	GI50 (SK-MEL-28 melanoma) [µM]	TGI (SK-MEL-28 melanoma) [µM]	GI50 (HCC-2998 colon) [µM]	TGI (HCC-2998 colon) [µM]	GI50 (MDA-MB-435) [µM]	TGI (MDA-MB-435) [µM]	GI50 (NCI-H460 lung) [µM]	TGI (NCI-H460 lung) [µM]	GI50 (SF-539 CNS) [µM]	TGI (SF-539 CNS) [µM]	GI50 (SW-620 colon) [µM]	TGI (SW-620 colon) [µM]	GI50 (EKVX NSCLC) [µM]	TGI (EKVX NSCLC) [µM]	GI50 (TK-10 renal) [µM]	TGI (TK-10 renal) [µM]	GI50 (NCI-H226 lung) [µM]	TGI (NCI-H226 lung) [µM]
CC1=C2[C@@H](CC1)[C@]1(C)O[C@@](C(C)C)(C[C@H]1OC(=O)CO)[C@H]2OC(=O)C1CC1c1ccccc1 (stereo not given in full)	20.3	40.4	16.8	34.6	13.5	29.4	14.1	27.3	14.5	32.2	17.1	33.8	16.4	32.6	8.21	22.7	16.6	31.6	16.2	35.7
COc1cc(Nc2ncc(-c3ccccc3)o2)cc(OC)c1	> 25	> 25	> 25	> 25	> 25	> 25	> 25	> 25	> 20.4	> 25	> 25	> 25	> 25	> 25	> 25	> 25	> 25	> 25	> 12.5	> 25
Cc1csc2[n+]1-c1ccccc1N(C(=O)Nc1ccccc1)C(C)C2 (stereo not given)	28.6	99.5	> 100	> 100	–	–	> 100	> 100	81	> 100	–	–	41	> 100	> 100	> 100	> 100	> 100	> 100	> 100
COc1ccc2c(c1)nc(C(=O)c1ccco1)c(C(F)(F)F)[n+]2[O-]	> 100	> 100	> 100	> 100	> 100	> 100	> 100	> 100	> 100	> 100	> 100	> 100	> 100	> 100	> 100	> 100	86.8	> 100	> 100	> 100
COCc1c(-c2cc3cc(C)cc(OC)c3s2)c2c(N)ncnn2c1CN1CCNC(=O)C1	4.11	77	9.38	70.3	8.37	> 100	4.29	24	4.05	> 100	2.31	14.4	3.5	> 100	2.67	29.8	3.64	30.6	0.291	5.41
COc1ccc(Cc2coc3ccccc3c2=O)cc1OC	–	> 100	–	> 100	–	–	–	> 100	–	> 100	–	> 100	–	> 100	–	> 100	–	> 100	–	> 100
Nc1ccc(C2=CC(c3ccc(Cl)cc3)N3C=CSC3=N2)cc1 (stereo not given)	12.2	34.7	4.86	16.6	1.83	3.61	2.43	6.76	20.2	> 100	1.84	3.85	2.07	4.51	–	–	11	28.5	9.36	> 100
Cc1cccc2nc3ccccc3c(Nc3ccc(NS(C)(=O)=O)cc3)c12	16.4	38.9	13.8	29.6	8.09	21.4	13.5	34.2	2.45	11.7	10.3	22.8	4.27	20.3	–	–	6.58	21	2.2	7.15
O=C(/C=C\c1ccc([N+](=O)[O-])cc1)c1ccccc(=O)c1O	–	9.92	–	3.75	–	5.6	–	7.55	–	3.64	–	–	–	> 21.6	–	11.9	–	8.91	–	6.7
O=C(CCCN1CCC(O)(c2ccc(Cl)cc2)CC1)c1ccc(F)cc1	–	> 100	–	36.9	–	–	–	33.7	–	45.1	–	60.3	–	39.6	–	> 100	–	> 100	–	> 100
O=S(=O)(O)c1cc(O)c(N=Nc2ccc(O)cc2O)c2ccccc12	–	> 100	–	> 100	–	–	–	> 100	–	–	–	–	–	> 100	–	> 100	–	> 100	–	48.5
Cc1cc2c(cc1Cl)S/C(=C/C(=O)O)C(Nc1ccc3ncsc3c1)=NS2(=O)=O	23.4	> 42.4	32.4	> 60.6	–	–	> 33.5	> 53.4	16.2	> 100	9.66	> 34.6	16.3	> 56	> 16.9	> 52.8	17.9	51.1	25.3	> 65.3
C[C@]12CC[C@H]3[C@@H](CC=C4C[C@@H](N5CCCC5)CC[C@@]43C)[C@@H]1C/C(=C\c1cccc(OCCN3CCOCC3)c1)[C@@H]2O	31	> 100	2.01	3.99	–	–	3.64	> 100	3.28	> 100	1.41	3.38	2.82	18.8	8.02	> 100	4.15	46.7	22	53.8
CC(N)(Cc1c[nH]c2cccc(F)c12)C(=O)O (stereo not given)	> 1000	> 1000	> 1000	> 1000	> 1000	> 1000	> 1000	> 1000	> 1000	> 1000	> 1000	> 1000	> 1000	> 1000	> 1000	> 1000	> 1000	> 1000	–	–
CC1=C(c2ccccc2)C(O)(c2ccccc2)C(C)C1=O (stereo not given)	53.1	> 100	25.5	> 100	–	–	2.13	5.47	25.1	> 100	17.1	> 100	6.18	> 100	35.1	> 100	30.1	> 100	33.4	> 100
COc1ccc(-c2nc(-c3ccc(C)cc3)cn3ccnc23)cc1	28.9	> 50	–	–	11.8	> 50	1.76	> 50	2.53	20.1	5.73	31	2.8	> 50	4.38	> 50	20.6	> 50	–	–
COc1cc(/C=C/C(=O)/C=C/c2ccc(-n3ccnc3C)cc2)ccc1O	14.9	39.3	2.18	5	1.75	3.21	–	–	15.4	43.4	2.19	5.53	2.23	5.63	21	99	4.74	90.4	2.37	6.4
Cc1cc2c(C)n(Cc3ccccc3Cl)nc2c(C(=O)O)c1C	–	> 100	–	> 100	–	> 100	–	–	–	> 100	–	> 100	–	> 100	–	> 100	–	> 100	–	> 100
CNC(=O)c1c(NC(=O)c2ccc(C(C)(C)C)cc2)sc2c(CN(C)C)c(O)ccc12	1.85	3.68	1.73	3.19	1.34	2.94	1.8	3.34	1.14	2.53	1.66	3.13	1.74	3.38	–	–	1.94	3.94	–	–
OC(COC(c1ccccc1)(c1ccccc1)c1ccccc1)C(O)CC1SCCS1 (stereo not given)	–	44	–	48.8	–	–	–	91.9	–	–	–	43.8	–	> 100	–	30.7	–	39.6	–	35.3
COC(=O)C1=C(O)[C@H](C(=O)OC)C2(O)C(C(=O)OC)[C@H](c3ccc(OC(=O)C(C)c4ccc(CC(C)C)cc4)cc3)C[C@@H]1[C@@H]2C(=O)OC (stereo not given in full)	17	> 50	12.6	40.8	7.95	15.8	12.8	28.2	13.2	> 50	1.4	8.05	18.1	> 50	0.97	6.7	30.6	> 50	–	–
CCC(C)[C@H](NC(=O)Nc1cc(C(F)(F)F)cc(C(F)(F)F)c1)C(=O)N[C@@H](Cc1cn(C)cn1)C(=O)OC (stereo not given in full)	1.32	1.83	0.572	1.1	0.696	1.35	0.825	1.85	0.895	1.89	1.32	1.83	0.69	1.53	–	–	3.65	–	0.571	1.29
